Literature values as cited in publication PMC3604136 (Nature chemical biology, 2013).

Test system: HIF-1 and HIF-2

For acriflavine, the HIF isoform inhibition is given as “inhibits both HIF-1 and HIF-2”.
